In US11286263B2, “Macrocyclic fluorine substituted indole derivatives” (The Broad Institute, Inc., priority 2017, dated 2022):
“And” between values parts separate entries of the source, which are not always exact repeats. Identical values can stand only once. Like-named read-outs stand apart in the source and are kept apart here.

Key:
[1] = system: SUDHL5; experiment: Induction of caspase-3/7 activity, SUDHL5 (Assay 4); format: cell-based; conditions: SUDHL5 cells
Outline: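 DLBCL lines treated with compounds for 3 h at 37° C.; caspase-3/7 activity read by Caspase-Glo 3/7 luminescence. Medium-only background subtracted; EC50 fitted with bottom fixed at 1 and top set to reference compound's maximal induction.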

[2] = target: BCL-2 (Homo sapiens (Human), UniProt P10415); experiment: Protein-protein interaction assay BCL-2/Bad BH3 peptide (BCL-2 assay), TR-FRET; format: binding; conditions: BCL-2/Bad BH3 peptide TR-FRET; median
Sequence of BCL-2 (P10415 1-211): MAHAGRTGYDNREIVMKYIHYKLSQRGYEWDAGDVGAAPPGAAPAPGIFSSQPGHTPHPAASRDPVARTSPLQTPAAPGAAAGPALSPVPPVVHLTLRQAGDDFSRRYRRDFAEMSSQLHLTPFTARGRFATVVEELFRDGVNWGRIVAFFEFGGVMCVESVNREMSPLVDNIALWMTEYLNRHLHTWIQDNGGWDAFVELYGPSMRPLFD
Protocol: Assay 3 Protein-Protein Interaction assay: BCL-2/Bad BH3 Peptide (BCL-2 Assay)
The dose-dependent inhibition by the compounds described in this invention of the interaction between BCL-2 and the BH3 domain of Bad (both human) was determined using a steady state binding competition assay with time-resolved fluorescence energy transfer (TR-FRET) readout. For that purpose BCL-2 (amino acids 1-211, C-terminal fused to a hexahistidine (6× His) tag (SEQ ID 5) and a synthetic Bad BH3-derived peptide of sequence Biotin-PEG2-PEG2-NLWAAQRYGRELRR-Nle-SDEFVDSFKK-amide (SEQ ID 4) served as protein receptor and tracer ligand respectively. The recombinant BCL-2 protein (expressed in E. coli) was purchased from BPS Bioscience (San Diego, Calif., USA). The Bad BH3-derived peptide can be obtained from e.g. Biosyntan (Berlin, Germany).
In the assay 11 different concentrations of each compound (0.1 nM, 0.33 nM, 1.1 nM, 3.8 nM, 13 nM, 44 nM, 0.15 μM, 0.51 μM, 1.7 μM, 5.9 μM and 20 μM) were typically measured as duplicates in the same microtiter plate. For that, 100-fold concentrated DMSO solutions were prepared by serial dilutions (1:3.4) of a 2 mM stock solution in a clear, 384-well microtiter plate (Greiner Bio-One, Frickenhausen, Germany). From there, 50 nl were transferred in a dark test plate (Greiner Bio-One, Frickenhausen, Germany). The assay was initiated by addition of 2 μl of a 2,5-fold concentrated His-BCL-2 solution (usually for a 1 nM end concentration in 5 μl reaction volume) in aqueous assay buffer [50 mM Tris/HCl pH 7, 100 mM sodium chloride (NaCl), 50 mM potassium fluoride (KF), 0.005% Tween-20, 2 mM DTT, 0.1% bovine gamma globulin (BGG)] to the compounds in the assay plate. This was followed by a 10-minute incubation step at 22° C. for pre-equilibration of the putative complex between His-BCL-2 and the compounds. After that, 3 μl of a 1.67-fold concentrated solution (in assay buffer) consisting of Bad BH3-derived peptide (1 nM end concentration) and TR-FRET detection reagents [1.67 nM anti-His-Eu cryptate and 1.67 nM streptavidin-XL665 (both from Cisbio Bioassays, Codolet, France)], were added.
The mixture was incubated in the dark for one hour at 22° C. and then overnight at 4° C. The formation of BCL-2/Bad complexes was determined by measuring the resonance energy transfer of the anti-His-Eu-cryptate antibody to the streptavidin-XL665 present in the reaction. For that purpose, the fluorescence emission at 620 nm and 665 nm after excitation at 330-350 nm was measured in a TR-FRET measuring instrument, for instance a Rubystar or a Pherastar (both from BMG Lab Technologies, Offenburg, Germany) or a Viewlux (Perkin-Elmer). The ratio of the emission at 665 nm and at 622 nm was used as indicator of the amount of BCL-2/Bad complexes present.
The resulting data (ratio) were normalized, taking 0% inhibition as the mean value of control measurements (usually 32 data points) where all reagents were included. In this case 50 nl DMSO were used instead of compounds. A 100% inhibition corresponded to the mean value of control measurements (usually 32 data points) where all reagents except BCL-2 were included. IC50 values were determined by regression analysis based on a 4 parameter equation (minimum, maximum, IC50, Hill; Y=Max+(Min−Max)/(1+(X/IC50)^Hill) using the Screener Software (Genedata).

[3] = system: SUDHL5; experiment: Induction of cytotoxicity, SUDHL5 (Assay 6); conditions: read-out: IC50 Cytotox SUDHL5 [M] (median), SUDHL5 cells, 5 h, CellTiter-Glo
Protocol: In principle, compounds that induce apoptosis will concomitantly induce cell cytotoxicity. Therefore, cytotoxicity assays were run in parallel in SUDHL5 and SUDHL10 cells.
The different cell lines were plated in culture medium (RPMI 1640 [GIBCO #22400-089] supplemented with 10% Fetal Bovine Serum) at a density of 3,300 cells in 30 μl/well in a sterile, solid black, flat bottom, polystyrene, TC-treated 384-well microplate (Corning #3571) using Multidrop Combi Reagent Dispenser. As a control, medium without cells was also added to the plate. Cells were incubated in a humidified incubator at 37° C. overnight. On the next day, the cells were treated with compounds (stock solution, 10 mM in DMSO) using the HP D300 Digital Dispenser in a concentration range of 3.3×10e-5 M (33 μM) to 5×10e-9 M (5 nM) in a single-dot curve with at least 16 dilutions and a DMSO concentration of 0.33%. Rim wells were excluded. The cells were incubated for 5 h hours in a humidified incubator at 37° C. After this incubation, 30 μl of CellTiter-Glo® Luminescent Cell Viability reagent (Promega, G7573) was added to each well using the Multidrop Combi Reagent Dispenser, followed by 15 min incubation on a shaker at room temperature. Finally, luminescence was read at 0.1 ms, with a gain of 3000 using the PHERAstar FS microplate reader (BMG Labtech).
The Bella DRC Master Sheet was used to calculate IC50s, with fixed CI=0 and C0=1.

[4] = system: MV-4-11; experiment: Antiproliferation assay MV-4-11 (Assay 7); format: cell-based; conditions: MV-4-11 cells, CellTiter-Glo, single determinations, read-out: IC50 Antiproli MV-4-11
Outline: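 Luminescent ATP-based viability (CellTiter-Glo) measured after 72 h of compound treatment at 37 °C. A day 0 plate recorded at time zero served as the starting reference for proliferation.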

[5] = Homo sapiens, SU-DHL-5, 3 h, Caspase-Glo 3/7, median

| EC50 [1, 5] | IC50 [2] | IC50 ([4]; Homo sapiens, MV4-11, 72 h) | IC50 ([4]; 72 h) | EC50 ([1]; 3 h, Caspase-Glo 3/7, median) | IC50 ([4]; 72 h, listed as 09) | IC50 ([4]; 72 h, listed as 01) | SMILES | IC50 ([3]; Homo sapiens, SU-DHL-5, 5 h) | IC50 [3] |
| --- | --- | --- | --- | --- | --- | --- | --- | --- | --- |
| 1.2 µM | > 20 µM | 2.04 µM | 2.55 µM |  |  |  | CCc1c2c(nn1C)COCCCCn1c(C(=O)O)c(CCCOc3cccc4c3CCCC4)c3ccc(F)c-2c31 (racemic) [Example 29, (rac)-12-ethyl-13-fluoro-11-methyl-1-(3-((5,6,7,8-tetrahydronaphthalen-1-yl)oxy)propyl)-4,5,6,7,9,11-hexahydropyrazolo[4′,3′:9,10][1]oxa[6]azacycloundecino[8,7,6-hi]indole-2-carboxylic acid] | 1.2e-06 M |  |
|  | > 20 µM |  | 5.79 µM | 1.8 µM |  |  | CCc1nn(C)c2c1-c1c(F)ccc3c(CCCOc4ccc(F)c5ccccc45)c(C(=O)O)n(c13)CCCCOC2 (single isomer, unassigned; enantiomer 1) [Example 42, 3-ethyl-4-fluoro-7-{3-[(4-fluoronaphthalen-1-yl)oxy]propyl}-1-methyl-1,10,11,12,13,15-hexahydropyrazolo[4′,3′:9,10][1,6]oxazacycloundecino[8,7,6-hi]indole-8-carboxylic acid (enantiomer 1)] |  | 2e-06 M |
| 0.84 µM | > 20 µM | 3.53 µM | 2.89 µM and 5.61 µM |  |  |  | Cc1c2c(nn1C)COCCCCn1c(C(=O)O)c(CCCOc3cccc4c3CCCC4)c3ccc(F)c-2c31 (racemic) [Example 18, (rac)-13-fluoro-11,12-dimethyl-1-(3-((5,6,7,8-tetrahydronaphthalen-1-yl)oxy)propyl)-4,5,6,7,9,11-hexahydropyrazolo[4′,3′:9,10][1]oxa[6]azacycloundecino[8,7,6-hi]indole-2-carboxylic acid] | 8.8e-07 M |  |
| 1.4 µM | > 20 µM | 6.2 µM | 6.56 µM |  |  |  | CCc1nn(C)c2c1-c1c(F)ccc3c(CCCOc4cccc5c4CCC5)c(C(=O)O)n(c13)CCCCOC2 (racemic) [Example 45, (rac)-1-(3-((2,3-dihydro-1H-inden-4-yl)oxy)propyl)-12-ethyl-13-fluoro-10-methyl-4,5,6,7,9,10-hexahydropyrazolo[4′,3′:9,10][1]oxa[6]azacycloundecino[8,7,6-hi]indole-2-carboxylic acid] | 1.9e-06 M |  |
| 6.2 µM | > 20 µM | 12.4 µM |  |  |  |  | Cc1nn(C)c2c1-c1c(F)ccc3c(CCCOc4cccc5c4CCC5)c(C(=O)O)n(c13)CCCCOC2 (racemic) [Example 35, (rac)-1-(3-((2,3-dihydro-1H-inden-4-yl)oxy)propyl)-13-fluoro-10,12-dimethyl-4,5,6,7,9,10-hexahydropyrazolo[4′,3′:9,10][1]oxa[6]azacycloundecino[8,7,6-hi]indole-2-carboxylic acid] | 7.1e-06 M |  |
| 1.8 µM | > 20 µM | 11.6 µM | 12.3 µM |  |  |  | Cc1nn(C)c2c1-c1c(F)ccc3c(CCCOc4cccc5c4CCCC5)c(C(=O)O)n(c13)CCCCOC2 (racemic) [Example 34, (rac)-13-fluoro-10,12-dimethyl-1-(3-((5,6,7,8-tetrahydronaphthalen-1-yl)oxy)propyl)-4,5,6,7,9,10-hexahydropyrazolo[4′,3′:9,10][1]oxa[6]azacycloundecino[8,7,6-hi]indole-2-carboxylic acid] | 2.6e-06 M |  |
| 2.5 µM | > 20 µM | 6.07 µM | 8.25 µM |  |  |  | CCc1c2c(nn1C)COCCCCn1c(C(=O)O)c(CCCOc3cc(C)c(Cl)c(C)c3)c3ccc(F)c-2c31 (racemic) [Example 31, (rac)-1-(3-(4-chloro-3,5-dimethylphenoxy)propyl)-12-ethyl-13-fluoro-11-methyl-4,5,6,7,9,11-hexahydropyrazolo[4′,3′:9,10][1]oxa[6]azacycloundecino[8,7,6-hi]indole-2-carboxylic acid] | 2.9e-06 M |  |
| 2.7 µM | > 20 µM | 7.5 µM |  |  | 6.04 µM |  | Cc1nn(C)c2c1-c1c(F)ccc3c(CCCOc4cccc5ccccc45)c(C(=O)O)n(c13)C/C=C\COC2 (racemic) [Example 9, (rac)-(Z)-13-fluoro-10,12-dimethyl-1-(3-(naphthalen-1-yloxy)propyl)-4,7,9,10-tetrahydro-pyrazolo[4′,3′:9,10][1]oxa[6]azacycloundecino[8,7,6-hi]indole-2-carboxylic acid] | 2.9e-06 M |  |
| 2.5 µM | > 20 µM | 21 µM | 11.4 µM |  |  |  | CCc1nn(C)c2c1-c1c(F)ccc3c(CCCOc4cc(C)c(Cl)c(C)c4)c(C(=O)O)n(c13)CCCCOC2 (racemic) [Example 46, (rac)-1-(3-(4-chloro-3,5-dimethylphenoxy)propyl)-12-ethyl-13-fluoro-10-methyl-4,5,6,7,9,10-hexahydropyrazolo[4′,3′:9,10][1]oxa[6]azacycloundecino[8,7,6-hi]indole-2-carboxylic acid] | 3.1e-06 M |  |
| 1.4 µM | > 20 µM | 8.18 µM | 5.54 µM |  |  |  | Cc1cc(OCCCc2c(C(=O)O)n3c4c(c(F)ccc24)-c2c(nn(C)c2C)COCCCC3)cc(C)c1Cl (racemic) [Example 20, (rac)-1-(3-(4-chloro-3,5-dimethylphenoxy)propyl)-13-fluoro-11,12-dimethyl-4,5,6,7,9,11-hexahydropyrazolo[4′,3′:9,10][1]oxa[6]azacycloundecino[8,7,6-hi]indole-2-carboxylic acid] | 1.8e-06 M |  |
| 1.4 µM | > 20 µM | 11.3 µM |  |  |  | 14.2 µM | Cc1c2c(nn1C)COC/C=C\Cn1c(C(=O)O)c(CCCOc3cccc4ccccc34)c3ccc(F)c-2c31 (racemic) [Example 1, (rac)-(11Z)-4-fluoro-2,3-dimethyl-7-[3-(naphthalen-1-yloxy)propyl]-2,10,13,15-tetrahydro-pyrazolo[4′,3′:9,10][1,6]oxazacycloundecino[8,7,6-hi]indole-8-carboxylic acid] | 1.2e-06 M |  |
